Tests used:
[1] = target: T1, human URAT1 uptake transporter (Homo sapiens, UniProt Q96S37); experiment: In vitro interaction with the human URAT1 uptake transporter (uric acid uptake in MDCKII cells); format: cell-based; conditions: for inhibition at 10 µM: MDCK-II, read-out: inhibition of URAT1 mediated uric acid accumulation
T1 construct: expressed in transfected cells
T1 sequence (Q96S37 1-553): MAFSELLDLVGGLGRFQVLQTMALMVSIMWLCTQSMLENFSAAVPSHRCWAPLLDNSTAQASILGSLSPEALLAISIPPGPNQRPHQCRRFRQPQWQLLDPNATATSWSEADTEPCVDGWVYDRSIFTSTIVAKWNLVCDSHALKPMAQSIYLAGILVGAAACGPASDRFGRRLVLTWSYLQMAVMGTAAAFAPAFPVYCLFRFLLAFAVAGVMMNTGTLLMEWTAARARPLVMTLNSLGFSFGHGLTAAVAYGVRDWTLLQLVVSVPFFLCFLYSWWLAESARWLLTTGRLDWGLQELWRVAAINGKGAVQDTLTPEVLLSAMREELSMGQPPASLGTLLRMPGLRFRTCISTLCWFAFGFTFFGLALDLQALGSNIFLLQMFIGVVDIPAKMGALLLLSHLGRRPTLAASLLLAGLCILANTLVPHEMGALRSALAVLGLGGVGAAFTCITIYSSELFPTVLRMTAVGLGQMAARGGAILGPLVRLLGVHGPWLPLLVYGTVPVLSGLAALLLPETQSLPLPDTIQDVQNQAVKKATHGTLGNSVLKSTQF
Protocol: Uptake experiments were performed using MDCKII cells stably expressing the human URAT1 uptake transporter. Cells were cultured at 37±1° C. in an atmosphere of 95:5 air:CO2 and were plated onto standard 96-well tissue culture plates at the cell number described in Table 1.
Radiolabelled probe substrate transport was determined by measuring an aliquot (35 μL) from each well for liquid scintillation counting.

[2] = cited from earlier work
[3] = Solubility of test articles in HBSS assay buffer; conditions: all tested concentrations; highest tested concentration 10 μM
Protocol: Before the experiment, the medium was removed and the cells were washed twice with 100 μL of HBSS without Cl^−. Uptake experiments were carried out at 37±1° C. in 50 μL of HBSS without Cl^−, pH 7.4 containing the probe substrate (20 μM uric acid) and the test article (TA) or solvent.

[4] = Stability in human microsomes; format: in vitro ADME; conditions: comparison with benzbromarone
[5] = target: CYP2C9 (Homo sapiens, UniProt P11712); experiment: CYP2C9 metabolic pathway / metabolite formation; format: in vitro ADME
CYP2C9, sequence (P11712 whole entry): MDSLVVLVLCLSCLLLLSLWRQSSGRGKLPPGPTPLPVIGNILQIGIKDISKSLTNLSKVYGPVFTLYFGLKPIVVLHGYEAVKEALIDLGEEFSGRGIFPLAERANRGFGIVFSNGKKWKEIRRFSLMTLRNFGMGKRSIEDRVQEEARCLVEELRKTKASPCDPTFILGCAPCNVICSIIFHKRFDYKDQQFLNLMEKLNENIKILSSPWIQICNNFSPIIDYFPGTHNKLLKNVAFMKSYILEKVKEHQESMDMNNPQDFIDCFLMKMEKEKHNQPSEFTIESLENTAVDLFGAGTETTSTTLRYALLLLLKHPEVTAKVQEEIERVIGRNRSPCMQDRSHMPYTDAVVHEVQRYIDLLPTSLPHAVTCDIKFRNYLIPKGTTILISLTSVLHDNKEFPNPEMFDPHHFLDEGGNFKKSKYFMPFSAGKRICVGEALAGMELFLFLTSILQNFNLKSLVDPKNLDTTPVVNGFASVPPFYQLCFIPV

| inhibition at 10 µM [1] [%] | solubility in HBSS buffer [3] | in vitro URAT1 potency compared to benzbromarone ([1]; comparison with benzbromarone) | stability in human microsomes [4] | CYP2C9 metabolic pathway of the compound [5] | formation of 6-OH benzbromarone and 5,6-di-OH benzbromarone metabolites [5] | Structure (SMILES) | serum uric acid (sUA) level reached ([2]; chronic therapy, target levels) [mg/dL] | hepatotoxicity ([2]; in certain patients) |
| --- | --- | --- | --- | --- | --- | --- | --- | --- |
| 98 | soluble |  |  |  |  | CCc1oc2ccccc2c1C(=O)c1cc(Br)c(O)c(Br)c1 [Benzbromarone, reference compound] | < 6 | associated with hepatotoxicity |
| 100 | soluble | better | more stable than benzbromarone | significantly reduced | not formed | [2H]c1c([2H])c([2H])c2c(C(=O)c3cc(Br)c(O)c(Br)c3)c(C(C)O)oc2c1[2H] (stereo not shown) [Compound 1, (3,5-dibromo-4-hydroxyphenyl) (2-(1-hydroxyethyl)benzofuran-3-yl-4,5,6,7-d4) methanone] |  |  |

From US20250066316A1, “CRYSTALLINE FORMS OF A COMPOUND FOR TREATING OR PREVENTING GOUT OR HYPERURICEMIA” (Arthrosi Therapeutics, Inc., priority 2021, published 2025)
